Experimental data from ChEMBL document CHEMBL5329217, “Hesperidin Methyl Chalcone reduces extracellular Aβ(25-35) peptide aggregation and fibrillation and also protects Neuro 2a cells from Aβ(25-35) induced neuronal dysfunction” (Bioorg Med Chem, 2023).
Active and inactive are the calls of the source. No cut-off for these calls is given here.

Assays:
[1] = molecular target: Amyloid-beta precursor protein (Homo sapiens) (UniProt P05067); assay: Disaggregation of amyloid beta (25 to 35) (unknown origin) mature fibrils at 50 ug/ml incubated for 1 to 9 days by ThT-based fluorescence microscopic analysis; details: dose 50.0 µg/ml, time 1-9 day
N2a [2] = assay: Inhibition of Amyloid beta (25 to 35)-induced oxidative damage in mouse Neuro2a cells assessed as reduction in ROS production by measuring reduction in fluorescence intensity at 50 ug/ml pretreated for 2 hrs followed by amyloid beta (25 to 35) addition and measured after 24 hrs by DCFH-DA staining -based spectrofluorimetric assay; type: functional, cell-based; details: dose 50.0 µg/ml, time 26.0 hrs
N2a [3] = assay: (§1) Inhibition of Amyloid beta (25 to 35)-induced macromolecular damage in mouse Neuro2a cells assessed as reduction in lipid peroxidation by measuring MDA content at 50 ug/ml pretreated for 2 hrs followed by amyloid beta (25 to 35) addition and measured after 24 hrs per mg protein (reference value: 106.4 +/-1.9 nmol); type: functional; details: dose 50 µg/ml; time 26 hrs
N2a [4] = assay: as §1, with “protein oxidation” for “lipid peroxidation”, “protein carbonyl” for “MDA”, “44.06 +/- 1.02 […])” for “106.4 +/-1.9 nmol)”; type: functional; details: dose 50 µg/ml; time 26 hrs
N2a [5] = assay: Inhibition of Amyloid beta (25 to 35)-induced mitochondrial membrane potential loss in mouse Neuro2a cells at 50 ug/ml pretreated for 2 hrs followed by amyloid beta (25 to 35) addition and measured after 24 hrs by rhodamine 123 staining based fluorescent spectrophotometry; type: functional, cell-based; details: dose 50.0 µg/ml, time 26.0 hrs
N2a [6] = assay: Neuroprotective activity against Amyloid beta (25 to 35)-induced toxicity in mouse Neuro2a cells assessed as non-apoptotic viable cells at 50 ug/ml pretreated for 2 hrs followed by amyloid beta (25 to 35) addition and measured after 24 hrs by AO/EtBr dual staining based fluorescence microscopy (reference value: 53.4 +/-3.88%); type: functional; details: dose 50 µg/ml; time 26 hrs
N2a [7] = assay: Inhibition of Amyloid beta (25 to 35)-induced apoptosis in mouse Neuro2a cells assessed as Bax/Bcl2 ratio at 50 ug/ml pretreated for 2 hrs followed by amyloid beta (25 to 35) addition and measured after 24 hrs by Western blot analysis (reference value: 1.09 +/- 0.018); type: functional; details: dose 50 µg/ml; time 26 hrs

Chain of Amyloid-beta precursor protein (Homo sapiens) (P05067 whole entry): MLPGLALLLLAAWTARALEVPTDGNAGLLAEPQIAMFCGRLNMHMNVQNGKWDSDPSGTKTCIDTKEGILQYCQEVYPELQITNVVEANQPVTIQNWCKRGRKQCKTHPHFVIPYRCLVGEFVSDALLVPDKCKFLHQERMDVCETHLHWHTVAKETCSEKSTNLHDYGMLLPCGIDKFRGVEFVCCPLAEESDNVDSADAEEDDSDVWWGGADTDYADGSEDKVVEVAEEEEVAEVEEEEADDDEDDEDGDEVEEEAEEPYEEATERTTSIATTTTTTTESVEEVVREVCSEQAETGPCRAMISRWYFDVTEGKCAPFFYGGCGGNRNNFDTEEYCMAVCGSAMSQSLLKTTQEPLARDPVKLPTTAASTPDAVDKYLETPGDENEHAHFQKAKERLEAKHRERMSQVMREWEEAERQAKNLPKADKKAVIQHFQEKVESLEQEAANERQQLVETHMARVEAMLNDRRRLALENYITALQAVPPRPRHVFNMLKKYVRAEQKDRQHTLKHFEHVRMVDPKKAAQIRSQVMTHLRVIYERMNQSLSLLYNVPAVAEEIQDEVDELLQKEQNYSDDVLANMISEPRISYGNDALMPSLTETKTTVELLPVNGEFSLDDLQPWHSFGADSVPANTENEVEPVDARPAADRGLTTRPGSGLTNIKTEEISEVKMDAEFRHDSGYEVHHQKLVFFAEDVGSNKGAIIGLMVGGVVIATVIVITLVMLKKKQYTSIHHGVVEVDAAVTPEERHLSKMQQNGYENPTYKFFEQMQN

Compound	Activity [1]	inhibition (N2a [2])	Activity (N2a [3]) [nmol]	Activity (N2a [4]) [nmol/mg]	inhibition (N2a [5])	Activity (N2a [6]) [%]	Ratio (N2a [7])
COc1ccc2c3c1O[C@H]1C[C@@H](O)C=C[C@@]31CCN(C)C2	Active						
COc1cc2c(cc1OC)C(=O)C(CC1CCN(Cc3ccccc3)CC1)C2 (configuration not stated) [DONEPEZIL]		Active	56.6	25.1	Active	79	0.57
